Reference: PMC9029746, “Discovery of Azaindolin-2-One as a Dual Inhibitor of GSK3β and Tau Aggregation with Potential Neuroprotective Activity” (Pharmaceuticals, 2022)
Entries after “also recorded” stand apart in the source; their conditions may differ. Like-named read-outs stand apart in the source and are kept apart here. One block for each molecule: values may come before it.

Tests used:
GSK3β = settings: cited from earlier work
human recombinant GSK3β = molecular target: T1, human recombinant GSK3β (Homo sapiens, UniProt P49841); assay: GSK3β inhibition assay (GSK3β Kinase Enzyme System, ADP-Glo Kinase Assay); format: biochemical; settings: for inhibition at 10 µM: read-out: percentage inhibition of GSK3β
T1 construct: purchased Promega Corporation, Madison, WI, USA (GSK3β Kinase Enzyme System)
Experimental: Screening of GSK3β inhibition activity for our new library was conducted using the […] luminescence assay to determine how much ATP is reduced after a kinase reaction.
According to the manufacturer’s protocol, the assay was conducted using GSK3β Kinase Enzyme System and ADP-Glo Kinase Assay (Promega Corporation, Madison, WI, USA) in 384-well plates. The kinase reaction was performed at room temperature using 2 ng/μL of human recombinant GSK3β, 0.2 μg/μL of GSK3 substrate ([…] (pS) EDEEE; amino acids 636–661), and 25 μM ATP in 4X kinase buffer containing 50 μM DTT. The compounds were added to enzyme solution and incubated for 2 h at room temperature. Then, kinase activity was quantified using the ADP-Glo Kinase Assay as previously described.

tau fibrils = molecular target: tau fibrils; design: method as in PMID 17761424; settings: cited from earlier work
alpha-synuclein (α-syn) = molecular target: alpha-synuclein (α-syn); design: method as in PMID 17761424; settings: cited from earlier work
beta-amyloid (Aβ) = molecular target: beta-amyloid (Aβ); design: method as in PMID 17761424; settings: cited from earlier work
[1] = molecular target: T2, tau 2N4R isoform carrying P301L mutation (Homo sapiens, UniProt P10636, P618L); assay: Tau aggregation inhibition in a cell model of tauopathy (Tau Aggregation Assay Kit, HeLa cells); format: cell-based; settings: for anti-tau aggregation effect: Hela cells, seed+; for inhibitory activity against tau aggregation: 1, 3, 10, and 30 µM overall
T2 construct: host or cells: HeLa cells
Experimental: Aggregation of Tau is observed using Hela cells transduced with the expression vector of tau 2N4R isoform carrying P301L mutation and fibrils of tau protein with P301L mutation as seed. We tested the anti-aggregation effects of (E)-2f and 3a at four different concentrations, namely (1 µM, 3 µM, 10 µM, 30 µM), the measurements combined with negative seed (negative control = normal aggregation level), and positive seed (positive control = AD aggregation levels). In other words, seed— and + indicate the absence and presence of fibrils of tau protein with P301L mutation as seed, respectively.
Figure 9 Anti-tau aggregation activity of compounds (E)-2f and 3a at 1, 3, 10, and 30 µM concentrations. (A) Tau proteins were stained with green fluorescence in HeLa cells transfected with the expression vector of tau 2N4R isoform carrying P301L mutation and incubated with the compounds. Microscopic observation was performed, and photos were shown on a 100 µm scale. Seed negative (seed−) and seed positive (seed+) indicate the absence and presence of fibrils of tau protein with P301L mutation, respectively. (B) Relative green spots per area (%) after exposure of Hela cells to compounds (E)-2f and 3a are compared to seed positive (seed+ = 100%). ImageJ counted more than 100 spots in the same area in each sample. *: denotes significant difference from control (seed+) at p < 0.05, **: denotes significant difference from control (seed+) at p < 0.01.
According to the manufacturer’s protocol, the assay was performed using Tau Aggregation Assay Kit (Cosmo Bio, Tokyo, Japan [catalog number: TAU01]). Briefly, HeLa cells were transfected with pCMV-Tau(2N4R)-P301L (20 ng) using Lipofectamine 3000 (ThermoFisher Scientific, Waltham, MA, USA) and treated with F-Tau (RD)-P301L (fibrils of tau protein with P301L mutation as seed, included in the assay kit). Drugs were added after 6 h, and the cells were incubated for 1 day. Next, immunostaining was performed basically as previously described. Tau proteins were stained with green fluorescence. In this staining, a TAU antibody (Proteintech, Rosemont, IL, USA [catalog number: 10274-1-AP]) was used as the first antibody, and goat anti-rabbit IgG (H + L) highly cross-adsorbed secondary antibody, Alexa Fluor 488 ThermoFisher Scientific) was used as the second antibody. An All-in-One Fluorescence Microscope BIOREVO BZ-9000 (Keyence, Osaka, Japan) was used as the microscope. ImageJ counted more than 100 spots in the same area in each sample [40, 41].

total tau = assay: Western blot analysis of total tau in Hela cells; format: cell-based, human; settings: 10 and 30 µM, 24 h, GAPDH normalization
Experimental: Western blot analysis was then used to confirm the amount of the total tau in Hela cells used for microscopic observation. The lysate of Hela cells, after incubation with compounds (E)-2f and 3a at 10 and 30 µM concentrations, were analyzed by immunoblotting using the same anti-Tau antibody (Figure S42). ImageJ was used to quantify the total tau at each concentration and compared to the total tau level of Hela cells with positive seed (seed+) alone as a control.
Figure 10 Effect of compounds (E)-2f and 3a on Tau levels. HeLa cells transfected with the expression vector of tau 2N4R isoform carrying P301L mutation and incubated with compounds (E)-2f and 3a at 10 and 30 µM concentrations for 24 h. Then Hela cells were lysed, and the lysates were analyzed by Western blotting. The relative amount of total tau expressed in the total cell lysate of Hela cells of each lane was quantified by ImageJ. The total tau level of Hela cells with positive seed (seed+) alone was calculated from total tau after GAPDH normalization and is presented as Control (1.00).
Western blot analysis was performed by lysing Hela cells in PBS/Laemmli sample buffer (1:1) as described previously. […] Chemiluminescence detected immunoreactivity using ImmunoStar LD (FUJIFILM-Wako, Osaka, Japan).

A375 = assay: MTT assay, cytotoxicity; format: cell-based; settings: Homo sapiens, A-375, 72 h; read-out: IC50 (µM) after 72 h Drug Treatment, A375
Experimental: (§1) The human cervical carcinoma cell line HeLa, obtained from the American Type Culture Collection (ATCC), was cultured in Dulbecco’s modified Eagle’s medium (DMEM) supplemented with 5% heat-inactivated fetal bovine serum (FBS). The human glioblastoma cell line U251 (obtained from ATCC), colon carcinoma cell line HCT116 [provided by the RIKEN BRC through the National Bio-Resource Project of the MEXT/AMED, Japan (RCB2979)], and human melanoma cell line A375, obtained from ATCC, were cultured in DMEM supplemented with 10% heat-inactivated FBS. The human chronic myelogenous leukemia cell line K562 and human peripheral blood mononuclear cells (PBMC), both cells obtained from ATCC, were cultured in RPMI 1640 supplemented with 10% heat-inactivated FBS described previously.
(§2) Cells were seeded in a 24-well plate, and the compounds were added. After incubation for 3 days, a solution (1.1 mg/mL) of 3-(4,5-dimethylthiazol-2-yl)-2,5-diphenyl-2H-tetrazolium bromide (MTT, from DOJINDO Laboratories, Kumamoto, Japan) was added, and MTT assay was performed as previously described.

HCT-116 = assay: MTT assay, cytotoxicity; format: cell-based; settings: Homo sapiens, HCT-116, 72 h; read-out: IC50 (µM) after 72 h Drug Treatment, HCT-116
Experimental: as §1, §2

K562 = assay: MTT assay, cytotoxicity; format: cell-based; settings: Homo sapiens, K562, 72 h; read-out: IC50 (µM) after 72 h Drug Treatment, K562
Experimental: as §1, §2

U251 = assay: MTT assay, cytotoxicity; format: cell-based; settings: Homo sapiens, U-251, 72 h; read-out: IC50 (µM) after 72 h Drug Treatment, U251
Experimental: as §1, §2

PBMC = assay: MTT assay, cytotoxicity on normal blood cells; format: cell-based; settings: Homo sapiens, 72 h, read-out: IC50 (µM) after 72 h Drug Treatment, PBMC
Experimental: as §1, §2

T1 sequence (P49841 whole entry): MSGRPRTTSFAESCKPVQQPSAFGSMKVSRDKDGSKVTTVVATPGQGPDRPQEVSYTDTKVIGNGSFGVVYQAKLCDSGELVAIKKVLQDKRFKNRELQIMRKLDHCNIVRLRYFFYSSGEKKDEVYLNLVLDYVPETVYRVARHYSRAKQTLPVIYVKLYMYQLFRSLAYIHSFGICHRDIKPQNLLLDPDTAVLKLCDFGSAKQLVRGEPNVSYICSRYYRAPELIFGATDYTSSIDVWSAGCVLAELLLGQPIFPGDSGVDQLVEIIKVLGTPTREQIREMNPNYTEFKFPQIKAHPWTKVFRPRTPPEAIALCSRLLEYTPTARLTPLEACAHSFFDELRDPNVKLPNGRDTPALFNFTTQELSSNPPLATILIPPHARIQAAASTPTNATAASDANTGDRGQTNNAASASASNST
T2 sequence (P10636 1-441 isoform P10636-8 P301L): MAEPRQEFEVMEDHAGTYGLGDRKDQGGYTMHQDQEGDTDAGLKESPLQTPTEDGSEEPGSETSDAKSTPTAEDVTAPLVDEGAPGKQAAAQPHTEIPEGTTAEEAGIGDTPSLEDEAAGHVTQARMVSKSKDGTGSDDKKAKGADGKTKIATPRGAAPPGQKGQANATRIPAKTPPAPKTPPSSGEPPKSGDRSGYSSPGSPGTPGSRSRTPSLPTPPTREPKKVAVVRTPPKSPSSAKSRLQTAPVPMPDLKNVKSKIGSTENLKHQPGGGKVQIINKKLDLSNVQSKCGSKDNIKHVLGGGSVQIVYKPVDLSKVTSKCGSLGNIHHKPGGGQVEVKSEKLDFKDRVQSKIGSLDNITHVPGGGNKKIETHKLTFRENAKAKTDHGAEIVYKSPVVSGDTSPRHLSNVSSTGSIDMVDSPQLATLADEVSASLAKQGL

Compound: COc1ccc2c(c1)c(/C=C1\SC(=O)NC1=O)cn2C [IV]
IC50 (GSK3β): 0.89 µM

inhibition at 10 µM (human recombinant GSK3β): < 30%
IC50 (human recombinant GSK3β; read-out: IC50 (µM) GSK3β): > 10 µM
Compound: O=C1Nc2ccc(F)cc2/C1=C\c1ccccn1 [(E)-2d, (E)-5-fluoro-3-(pyridin-2-ylmethylene)indolin-2-one]

IC50 (human recombinant GSK3β; read-out: IC50 (µM) GSK3β): 1.9 µM
Compound: CN(C)c1ccc(/C=C2\C(=O)Nc3ncccc32)cc1 [(Z)-3a]

IC50 (human recombinant GSK3β; read-out: IC50 (µM) GSK3β): 3 µM
Compound: CCN(CC)c1ccc(/C=C2\C(=O)Nc3ncccc32)cc1 [(Z)-3b]

inhibition at 10 µM (human recombinant GSK3β): 45%
IC50 (human recombinant GSK3β; read-out: IC50 (µM) GSK3β): > 10 µM
Compound: O=C1Nc2cc(Cl)ccc2/C1=C\c1ccccn1 [(E)-2c, (E)-6-chloro-3-(pyridin-2-ylmethylene)indolin-2-one]

Compound: Cn1cc(-c2[nH][nH]c(=O)c2-c2cn(C)c3ccccc23)c2ccccc21 [III]
IC50 (GSK3β; in vitro): 0.034 µM

IC50 (human recombinant GSK3β; read-out: IC50 (µM) GSK3β): 3 µM
Compound: CCN(CC)c1ccc(/C=C2/C(=O)Nc3ncccc32)cc1 [(E)-3b]

IC50 (human recombinant GSK3β; read-out: IC50 (µM) GSK3β): > 10 µM
Compound: O=C1Nc2ccc(Cl)cc2/C1=C\c1ccccn1 [(E)-2b, (E)-5-chloro-3-(pyridin-2-ylmethylene)indolin-2-one]

Compound: CN(C)c1ccc(/C=C2/C(=O)Nc3ccccc32)cc1 [VII]
Ki (tau fibrils): 95 nM
Ki (alpha-synuclein (α-syn)): 490 nM
Ki (beta-amyloid (Aβ)): 140 nM

Compound: O=C1Nc2ccccc2/C1=C\c1ccccn1 [(E)-2a, (E)-3-(pyridin-2-ylmethylene)indolin-2-one]
IC50 (human recombinant GSK3β): > 10 µM
IC50 (GSK3β): 0.00416 µM

inhibition at 10 µM (human recombinant GSK3β): < 30%
IC50 (human recombinant GSK3β; read-out: IC50 (µM) GSK3β): > 10 µM
Compound: O=C1Nc2cc(F)ccc2/C1=C\c1ccccn1 [(E)-2e, (E)-6-fluoro-3-(pyridin-2-ylmethylene)indolin-2-one]

Compound: CN(C)c1ccc(C=C2C(=O)Nc3ncccc32)cc1 (mixture of isomers) [Compound 3a, (E/Z)-3-(4-(dimethylamino)benzylidene)-1,3-dihydro-2H-pyrrolo [2,3-b]pyridin-2-one]
anti-tau aggregation effect ([1]; 30 µM): completely protected Hela cells from tau aggregates
inhibitory activity against tau aggregation [1]: concentration-dependent inhibitory activity
total tau level compared to Hela cells with seed+ alone (total tau): little or no difference; also recorded: minimal effect
IC50 (A375): > 100 µM
IC50 (HCT-116): 9.8 µM
IC50 (K562): 4.7 µM
IC50 (U251): 10.3 µM
IC50 (PBMC): 94.5 µM

Compound: Clc1cc(-c2c[nH]c3ncccc23)cc(NC2CCCCC2)n1 [Native ligand]
Ki (GSK3β): 0.058 µM

IC50 (human recombinant GSK3β; read-out: IC50 (µM) GSK3β): 5.9 µM
Compound: O=C1Nc2ncccc2/C1=C/c1ccncc1 [(Z)-3d]

Compound: O=C1NC(=S)S/C1=C\c1cccc(-c2ccc3c(c2)OCO3)n1 [V]
IC50 (GSK3β): 1.6 µM

IC50 (human recombinant GSK3β; read-out: IC50 (µM) GSK3β): 3.2 µM
Compound: CN(C)c1ccnc(/C=C2/C(=O)Nc3ncccc32)c1 [(E)-3c]

inhibition at 10 µM (human recombinant GSK3β): 76.4%
IC50 (human recombinant GSK3β; read-out: IC50 (µM) GSK3β): 1.7 µM
anti-tau aggregation effect ([1]; 1 µM): no efficacy
anti-tau aggregation effect ([1]; 3 µM): moderate efficacy
anti-tau aggregation effect ([1]; 10 µM): significant anti-aggregation effect
Compound: O=C1Nc2ncccc2/C1=C\c1ccccn1 [(E)-2f, (E)-3-(pyridin-2-ylmethylene)-1,3-dihydro-2H-pyrrolo [2,3-b]pyridin-2-one]
anti-tau aggregation effect ([1]; 30 µM): completely protected Hela cells from tau aggregates
inhibitory activity against tau aggregation [1]: pronounced tau anti-aggregation effect; also recorded: concentration-dependent inhibitory activity
total tau level compared to Hela cells with seed+ alone (total tau): little or no difference; also recorded: minimal effect
IC50 (A375): 14 µM
IC50 (HCT-116): 12.8 µM
IC50 (K562): 13.8 µM
IC50 (U251): 28.2 µM
IC50 (PBMC): > 300 µM

IC50 (human recombinant GSK3β; read-out: IC50 (µM) GSK3β): 5.9 µM
Compound: O=C1Nc2ncccc2/C1=C\c1ccncc1 [(E)-3d]
